Data from PubChem BioAssay AID2060613 (Molecular Pharmacology Branch, DTP, NCI, 2025).
pIC50: −log10 of the molar value. “And” between values parts separate entries of the source, which are not always exact repeats. Identical values can stand only once. Values belong to the compound of their own block, whether it stands above or below them.

Test system: 233499-124-R-J3-PDC complex spheroid viability
Assay: Anticancer human tumor 233499-124-R-J3-PDC patient-derived colon adenocarcinoma cell line growth inhibition [CLK]
Details: for viability, T/C: stronger effect = lower value
Description: A high-throughput screen of multi-cell type tumor spheroids was designed to identify active combinations of […] and targeted small molecules. Complex spheroids include a stromal component modeled by human endothelial cells (HUVEC) and fibroblasts modeled by human mesenchymal stem cells (MSCs). The concentration ranges selected for each drug and investigational agent were based upon clinically achievable concentrations if the clinical Cmax of the agent was known.
Compounds. The drugs and investigational agents: cirtuvivint (SM08502; NSC835563), CC-671 (NSC850746), vemurafenib (NSC761431), tapotoclax (NSC804041), sotorasib (NSC818433), adagrasib (NSC831453), MRTX-1133 (NSC836407), BAY2416964 (NSC825713), copanlisib (NSC816437), inavolisib (NSC800729), abemaciclib (NSC768073), osimertinib (NSC779217), entinostat (NSC756642), eltanexor (KPT-8602, NSC794443), venetoclax (NSC766270), ceralasertib (NSC777638), bortezomib (NSC756655), olaparib (NSC753686), talazoparib (NSC767125), alisertib (NSC759677), peposertib (NSC802822), gemcitabine (NSC613327), 5-fluorouracil (NSC19893), SN-38 (NSC673596), oxaliplatin (NSC266046), paclitaxel (NSC125973), and doxorubicin (NSC123127), were obtained from the National Cancer Institute (NCI) Developmental Therapeutics Program Chemical Repository. The FDA-approved anticancer drug set is available from the Developmental Therapeutics Program at https://dtp.cancer.gov/organization/dscb/obtaining/available plates.htm. […] The stock solutions were prepared in dimethyl sulfoxide (DMSO, Sigma-Aldrich, St. Louis, MO, cat. D2650), except for the platinum complexes which were prepared in saline (Quality Biological, Gaithersburg, MD, cat. 114-055-101), at 800-fold the tested concentration and stored at -70 degrees C prior to their use. All drugs and investigational agents were tested over a range starting from a high concentration at or near the clinical Cmax and decreasing in half-log increments. If the clinical Cmax for an agent had not been determined, the highest concentration tested was 10 microM.
Cell Culture. All cells were maintained in an incubator at 37 degrees C and 5% CO2 with 95% humidity. The PDC lines were cultured according to standard operating procedures established by the NCI PDMR. Briefly, all PDCs were thawed and cultured in Matrigel-coated flasks prepared with a working solution of 1X Ham's F-12 nutrient mix, without supplementation (Invitrogen, Waltham, MA, cat. 11765054), 100 U/mL penicillin-streptomycin (Invitrogen, cat. 15140122), and 2.5% Matrigel (Corning Inc., Corning, NY, cat. 354248) for the first three passages. The 947758-054-R-J2-PDC line was cultured in 6B/Colon 1A media, which includes advanced DMEM/F-12 (Thermo Fisher Scientific, cat. 12634028), 10 mM HEPES (Thermo Fisher Scientific, cat. 15630080), 1X GlutaMAX supplement (Thermo Fisher Scientific, cat. 35050061), 0.1 mg/mL primocin (InvivoGen, cat. ant-pm-2), 10% defined fetal bovine serum, heat inactivated (HyClone Laboratories Inc., cat. SH30070.03HI), 1.25 mM N-Acetyl-L-cysteine (Sigma-Aldrich, cat. A9165), 10 mM nicotinamide (Sigma-Aldrich, cat. N0636), 1X B-27 supplement (Thermo Fisher Scientific, cat. 17504044), 1X N-2 supplement (Thermo Fisher Scientific, cat. 17502048), and 10 microM Y-27632 dihydrochloride (Tocris Bioscience, cat. 1254). The 876862-298-R-J1-PDC was cultured in 6E media, which includes all 6B/Colon 1A media components plus 50% L-WRN conditioned media (ATCC, cat. CRL-3276), 50 ng/mL recombinant human EGF recombinant protein (hEGF; Thermo Fisher Scientific, cat. PHG0311), 10 ng/mL recombinant human fibroblast growth factor 10 (hGFG-10; PeproTech, cat. 100-26), 1 ng/mL recombinant human fibroblast growth factor 2 (hFGF-2; PeproTech, cat. 100-18B), and 1 µM prostaglandin E2 (PGE2; Tocris, cat. 2296). The 227483-062-R1-J1-PDC line was cultured in Panc media, containing all 6E components except hFGF-2, with the addition of 500 nM SB-431542 (Selleckchem, cat. S1067) and 10 nM gastrin (Tocris, cat. 3006). […]

[1] = curve of first compound, second compound 0.0316 µM
[2] = curve of first compound, second compound 0.1 µM
[3] = curve of first compound, second compound 0.316 µM
[4] = curve of first compound, second compound 1 µM
[5] = curve of first compound, second compound 3.16 µM
[6] = curve of first compound, second compound 10 µM
[7] = second compound 0.0316 µM, first compound 0.0316 µM
[8] = second compound 0.0316 µM, first compound 0.1 µM
[9] = second compound 0.0316 µM, first compound 0.316 µM
[10] = second compound 0.0316 µM, first compound 1 µM
[11] = second compound 0.0316 µM, first compound 3.16 µM
[12] = second compound 0.0316 µM, first compound 10 µM
[13] = second compound 0.1 µM, first compound 0.0316 µM
[14] = second compound 0.1 µM, first compound 0.1 µM
[15] = second compound 0.1 µM, first compound 0.316 µM
[16] = second compound 0.1 µM, first compound 1 µM
[17] = second compound 0.1 µM, first compound 3.16 µM
[18] = second compound 0.1 µM, first compound 10 µM
[19] = second compound 0.316 µM, first compound 0.0316 µM
[20] = second compound 0.316 µM, first compound 0.1 µM
[21] = second compound 0.316 µM, first compound 0.316 µM
[22] = second compound 0.316 µM, first compound 1 µM
[23] = second compound 0.316 µM, first compound 3.16 µM
[24] = second compound 0.316 µM, first compound 10 µM
[25] = second compound 1 µM, first compound 0.0316 µM
[26] = second compound 1 µM, first compound 0.1 µM
[27] = second compound 1 µM, first compound 0.316 µM
[28] = second compound 1 µM, first compound 1 µM
[29] = second compound 1 µM, first compound 3.16 µM
[30] = second compound 1 µM, first compound 10 µM
[31] = second compound 3.16 µM, first compound 0.0316 µM
[32] = second compound 3.16 µM, first compound 0.1 µM
[33] = second compound 3.16 µM, first compound 0.316 µM
[34] = second compound 3.16 µM, first compound 1 µM
[35] = second compound 3.16 µM, first compound 3.16 µM
[36] = second compound 3.16 µM, first compound 10 µM
[37] = second compound 10 µM, first compound 0.0316 µM
[38] = second compound 10 µM, first compound 0.1 µM
[39] = second compound 10 µM, first compound 0.316 µM
[40] = second compound 10 µM, first compound 1 µM
[41] = second compound 10 µM, first compound 3.16 µM
[42] = second compound 10 µM, first compound 10 µM
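Note: spheroids exposed to the drug combinations for seven days.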
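Throughout, for viability, T/C: percent viability relative to DMSO vehicle control wells taken as 100%.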

pIC50 (curve of compound): < 5.00
Structure (SMILES): CC(CO)NC(=O)c1cc(-c2ccc(Cl)cc2)nn(-c2cnn(C)c2)c1=O (stereo not given)
viability, T/C (compound 0.0316 µM): 103% and 94.8% | viability, T/C (compound 0.1 µM): 95.2% and 90.1% | viability, T/C (compound 0.316 µM): 96.3% and 95.6% | viability, T/C (compound 1 µM): 96.8% and 92.9% | viability, T/C (compound 3.16 µM): 92.7% and 96% | viability, T/C (compound 10 µM): 89.7% and 83.2%

pIC50 (curve of compound): 5.44 and 5.32
Structure (SMILES): COC1C=CCC(C)C(C)S(=O)(=O)NC(=O)c2ccc3c(c2)N(CC2CCC21)CC1(CCCc2cc(Cl)ccc21)CO3 (stereo not given)
viability, T/C (compound 0.0316 µM): 101% and 96.4% | viability, T/C (compound 0.1 µM): 86.9% and 97.1% | viability, T/C (compound 0.316 µM): 74% and 90.9% | viability, T/C (compound 1 µM): 80.4% and 83.1% | viability, T/C (compound 3.16 µM): 58.9% and 76% | viability, T/C (compound 10 µM): 5.33% and 8.83%

Structure (SMILES): O=c1[nH]cc(F)c(=O)[nH]1 + CN1CCN(c2cc(C(=O)Nc3cc4cc(-c5cnn(C)c5)ccc4cn3)ccn2)CC1
pIC50 [1]: 6.07 | pIC50 [2]: 6.02 | pIC50 [3]: 6.07 | pIC50 [4]: > 7.50 | pIC50 [5]: > 7.50 | pIC50 [6]: > 7.50 | viability, T/C [7]: 93% | viability, T/C [8]: 104% | viability, T/C [9]: 90.8% | viability, T/C [10]: 43.5% | viability, T/C [11]: 28.6% | viability, T/C [12]: 31.4% | viability, T/C [13]: 99.8% | viability, T/C [14]: 100% | viability, T/C [15]: 96.8% | viability, T/C [16]: 48% | viability, T/C [17]: 28.8% | viability, T/C [18]: 30.4% | viability, T/C [19]: 96.3% | viability, T/C [20]: 98.5% | viability, T/C [21]: 96.5% | viability, T/C [22]: 42% | viability, T/C [23]: 24.6% | viability, T/C [24]: 19.7% | viability, T/C [25]: 1.35% | viability, T/C [26]: 1.2% | viability, T/C [27]: 0.92% | viability, T/C [28]: 2.1% | viability, T/C [29]: 0.59% | viability, T/C [30]: 0.84% | viability, T/C [31]: 0.5% | viability, T/C [32]: 0.58% | viability, T/C [33]: 1.18% | viability, T/C [34]: 0.66% | viability, T/C [35]: 0.53% | viability, T/C [36]: 0.54% | viability, T/C [37]: 0.37% | viability, T/C [38]: 0.5% | viability, T/C [39]: 1.31% | viability, T/C [40]: 0.42% | viability, T/C [41]: 0.41% | viability, T/C [42]: 0.45%

pIC50 (curve of compound): 5.58 and 6.11
Structure (SMILES): COc1cccc2c1C(=O)c1c(O)c3c(c(O)c1C2=O)CC(O)(C(=O)CO)CC3OC1CC(N)C(O)C(C)O1 (stereo not given)
viability, T/C (compound 0.0316 µM): 92.5% and 101% | viability, T/C (compound 0.1 µM): 99% and 94.5% | viability, T/C (compound 0.316 µM): 81.5% and 67.5% | viability, T/C (compound 1 µM): 72.2% and 48.1% | viability, T/C (compound 3.16 µM): 45.6% and 21.7% | viability, T/C (compound 10 µM): 17.3% and 17.5%

pIC50 [1]: < 5.00 | pIC50 [2]: < 5.00 | pIC50 [3]: 5.08 | pIC50 [4]: 5.23 | pIC50 [5]: 5.29 | pIC50 [6]: 5.38
Structure (SMILES): CCCS(=O)(=O)Nc1ccc(F)c(C(=O)c2c[nH]c3ncc(-c4ccc(Cl)cc4)cc23)c1F + CNC(=O)c1ccc(Nc2nc(OC3CCCC3)c3c(-c4ccc5nc(C)oc5c4)c[nH]c3n2)c(OC)c1
viability, T/C [7]: 89.6% | viability, T/C [8]: 96.5% | viability, T/C [9]: 103% | viability, T/C [10]: 102% | viability, T/C [11]: 97.9% | viability, T/C [12]: 64.9% | viability, T/C [13]: 75.7% | viability, T/C [14]: 86.8% | viability, T/C [15]: 82.2% | viability, T/C [16]: 86.8% | viability, T/C [17]: 85.5% | viability, T/C [18]: 50% | viability, T/C [19]: 75.9% | viability, T/C [20]: 87.4% | viability, T/C [21]: 90.6% | viability, T/C [22]: 90.3% | viability, T/C [23]: 90.3% | viability, T/C [24]: 43.4% | viability, T/C [25]: 90.1% | viability, T/C [26]: 90.5% | viability, T/C [27]: 78.7% | viability, T/C [28]: 85.3% | viability, T/C [29]: 91% | viability, T/C [30]: 18% | viability, T/C [31]: 76.1% | viability, T/C [32]: 90.1% | viability, T/C [33]: 84.6% | viability, T/C [34]: 83.6% | viability, T/C [35]: 76.5% | viability, T/C [36]: 11.9% | viability, T/C [37]: 76.7% | viability, T/C [38]: 78.4% | viability, T/C [39]: 79.2% | viability, T/C [40]: 81.3% | viability, T/C [41]: 60.9% | viability, T/C [42]: 14.6%
